#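 Results reflect a 48-hour exposure of cells in 96-well plates to compound at five concentrations. Abbreviation: GI50, concentration required for 50% inhibition of growth. TGI denotes the concentration required for complete inhibition of growth.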
# Columns and labels:
# Test in all cases: NCI anticancer screen, dose series, 48 h
# OVCAR-5 ovarian = system: OVCAR-5 ovarian
# SNB-75 CNS = system: SNB-75 CNS
# NCI-H460 lung = system: NCI-H460 lung
# IGROV1 ovarian = system: IGROV1 ovarian
# BT-549 breast = system: BT-549 breast
# UO-31 renal = system: UO-31 renal
# TK-10 renal = system: TK-10 renal
# SN12C renal = system: SN12C renal
# HCT-116 colon = system: HCT-116 colon
# RXF 393 renal = system: RXF 393 renal
# HCT-15 colon = system: HCT-15 colon
# HS 578T breast = system: HS 578T breast
# NCI-H226 lung = system: NCI-H226 lung
# UACC-257 melanoma = system: UACC-257 melanoma
# MOLT-4 leukemia = system: MOLT-4 leukemia
# PC-3 prostate = system: PC-3 prostate
# OVCAR-4 ovarian = system: OVCAR-4 ovarian
# SNB-19 CNS = system: SNB-19 CNS
# KM12 colon = system: KM12 colon
# OVCAR-3 ovarian = system: OVCAR-3 ovarian
# SK-OV-3 ovarian = system: SK-OV-3 ovarian
# EKVX NSCLC = system: EKVX NSCLC
# SF-539 CNS = system: SF-539 CNS
# SW-620 colon = system: SW-620 colon
# 786-0 renal = system: 786-0 renal
# SF-268 CNS = system: SF-268 CNS
# MDA-MB-231 breast = system: MDA-MB-231 breast
# OVCAR-8 ovarian = system: OVCAR-8 ovarian
# SK-MEL-2 melanoma = system: SK-MEL-2 melanoma
# HL-60(TB) leukemia = system: HL-60(TB) leukemia
# RPMI-8226 leukemia = system: RPMI-8226 leukemia
# ACHN renal = system: ACHN renal
# SF-295 CNS = system: SF-295 CNS
# HOP-92 NSCLC = system: HOP-92 NSCLC
# T-47D breast = system: T-47D breast
# SR leukemia = system: SR leukemia
# MDA-MB-435 = system: MDA-MB-435
# NCI/ADR-RES ovarian = system: NCI/ADR-RES ovarian
# U251 CNS = system: U251 CNS
# NCI-H522 lung = system: NCI-H522 lung
# UACC-62 melanoma = system: UACC-62 melanoma
# CAKI-1 renal = system: CAKI-1 renal
# HOP-62 NSCLC = system: HOP-62 NSCLC
# COLO 205 colon = system: COLO 205 colon
# K-562 leukemia = system: K-562 leukemia
# DU-145 prostate = system: DU-145 prostate
# SK-MEL-28 melanoma = system: SK-MEL-28 melanoma
# LOX IMVI melanoma = system: LOX IMVI melanoma
# SK-MEL-5 melanoma = system: SK-MEL-5 melanoma
# M14 melanoma = system: M14 melanoma
# A549 NSCLC = system: A549 NSCLC
# HCC-2998 colon = system: HCC-2998 colon
# CCRF-CEM leukemia = system: CCRF-CEM leukemia
# NCI-H23 lung = system: NCI-H23 lung
# MCF7 breast = system: MCF7 breast
# HT29 colon = system: HT29 colon
# A498 renal = system: A498 renal
# MALME-3M melanoma = system: MALME-3M melanoma
smiles,measurement,setting,value
O=c1[nH]c(O)c(C=Nc2ccc(-c3nc4ccccc4o3)cc2)c(=O)[nH]1,GI50,OVCAR-5 ovarian,> 100 µM
same,TGI,OVCAR-5 ovarian,> 100 µM
same,GI50,SNB-75 CNS,> 100 µM
same,TGI,SNB-75 CNS,> 100 µM
same,GI50,NCI-H460 lung,> 100 µM
same,TGI,NCI-H460 lung,> 100 µM
same,GI50,IGROV1 ovarian,> 100 µM
same,TGI,IGROV1 ovarian,> 100 µM
same,GI50,BT-549 breast,> 100 µM
same,TGI,BT-549 breast,> 100 µM
same,GI50,UO-31 renal,82.4 µM
same,TGI,UO-31 renal,> 100 µM
same,GI50,TK-10 renal,40.6 µM
same,TGI,TK-10 renal,> 100 µM
same,GI50,SN12C renal,> 100 µM
same,TGI,SN12C renal,> 100 µM
same,GI50,HCT-116 colon,93.6 µM
same,TGI,HCT-116 colon,> 100 µM
same,GI50,RXF 393 renal,89 µM
same,TGI,RXF 393 renal,> 100 µM
same,GI50,HCT-15 colon,32.4 µM
same,TGI,HCT-15 colon,> 100 µM
same,GI50,HS 578T breast,> 100 µM
same,TGI,HS 578T breast,> 100 µM
same,GI50,NCI-H226 lung,90.3 µM
same,TGI,NCI-H226 lung,> 100 µM
same,GI50,UACC-257 melanoma,58.4 µM
same,TGI,UACC-257 melanoma,> 100 µM
same,GI50,MOLT-4 leukemia,> 100 µM
same,TGI,MOLT-4 leukemia,> 100 µM
same,GI50,PC-3 prostate,> 100 µM
same,TGI,PC-3 prostate,> 100 µM
same,GI50,OVCAR-4 ovarian,33 µM
same,TGI,OVCAR-4 ovarian,> 100 µM
same,GI50,SNB-19 CNS,> 100 µM
same,TGI,SNB-19 CNS,> 100 µM
same,GI50,KM12 colon,31.3 µM
same,TGI,KM12 colon,> 100 µM
same,GI50,OVCAR-3 ovarian,15.6 µM
same,TGI,OVCAR-3 ovarian,57.4 µM
same,GI50,SK-OV-3 ovarian,> 100 µM
same,TGI,SK-OV-3 ovarian,> 100 µM
same,GI50,EKVX NSCLC,> 100 µM
same,TGI,EKVX NSCLC,> 100 µM
same,GI50,SF-539 CNS,27.4 µM
same,TGI,SF-539 CNS,62.7 µM
same,GI50,SW-620 colon,40.6 µM
same,TGI,SW-620 colon,> 100 µM
same,GI50,786-0 renal,32.9 µM
same,TGI,786-0 renal,> 100 µM
same,GI50,SF-268 CNS,> 100 µM
same,TGI,SF-268 CNS,> 100 µM
same,GI50,MDA-MB-231 breast,29.2 µM
same,TGI,MDA-MB-231 breast,> 100 µM
same,GI50,OVCAR-8 ovarian,25.8 µM
same,TGI,OVCAR-8 ovarian,> 100 µM
same,GI50,SK-MEL-2 melanoma,37.8 µM
same,TGI,SK-MEL-2 melanoma,> 100 µM
same,GI50,HL-60(TB) leukemia,81.9 µM
same,TGI,HL-60(TB) leukemia,> 100 µM
same,GI50,RPMI-8226 leukemia,27.5 µM
same,TGI,RPMI-8226 leukemia,> 100 µM
same,GI50,ACHN renal,> 100 µM
same,TGI,ACHN renal,> 100 µM
same,GI50,SF-295 CNS,23.7 µM
same,TGI,SF-295 CNS,68.9 µM
same,GI50,HOP-92 NSCLC,> 100 µM
same,TGI,HOP-92 NSCLC,> 100 µM
same,GI50,T-47D breast,93.7 µM
same,TGI,T-47D breast,> 100 µM
same,GI50,SR leukemia,44.5 µM
same,TGI,SR leukemia,> 100 µM
same,GI50,MDA-MB-435,33.3 µM
same,TGI,MDA-MB-435,> 100 µM
same,GI50,NCI/ADR-RES ovarian,3.56 µM
same,TGI,NCI/ADR-RES ovarian,9.59 µM
same,GI50,U251 CNS,23.8 µM
same,TGI,U251 CNS,75.9 µM
same,GI50,NCI-H522 lung,30.9 µM
same,TGI,NCI-H522 lung,> 100 µM
same,GI50,UACC-62 melanoma,35.6 µM
same,TGI,UACC-62 melanoma,> 100 µM
same,GI50,CAKI-1 renal,33.1 µM
same,TGI,CAKI-1 renal,> 100 µM
same,GI50,HOP-62 NSCLC,> 100 µM
same,TGI,HOP-62 NSCLC,> 100 µM
same,GI50,COLO 205 colon,23.2 µM
same,TGI,COLO 205 colon,> 100 µM
same,GI50,K-562 leukemia,35 µM
same,TGI,K-562 leukemia,> 100 µM
same,GI50,DU-145 prostate,> 100 µM
same,TGI,DU-145 prostate,> 100 µM
same,GI50,SK-MEL-28 melanoma,16.6 µM
same,TGI,SK-MEL-28 melanoma,47 µM
same,GI50,LOX IMVI melanoma,25.3 µM
same,TGI,LOX IMVI melanoma,58.9 µM
same,GI50,SK-MEL-5 melanoma,44.8 µM
same,TGI,SK-MEL-5 melanoma,> 100 µM
same,GI50,M14 melanoma,50.8 µM
same,TGI,M14 melanoma,> 100 µM
same,GI50,A549 NSCLC,74.9 µM
same,TGI,A549 NSCLC,> 100 µM
Cc1cc(C)nc(NC(=S)Nc2ccc([N+](=O)[O-])cc2)c1,TGI,SNB-75 CNS,> 100 µM
same,TGI,HCC-2998 colon,> 100 µM
same,TGI,NCI-H460 lung,> 100 µM
same,TGI,CCRF-CEM leukemia,> 100 µM
same,TGI,IGROV1 ovarian,> 100 µM
same,TGI,BT-549 breast,> 100 µM
same,TGI,UO-31 renal,> 100 µM
same,TGI,TK-10 renal,> 100 µM
same,TGI,HCT-116 colon,> 100 µM
same,TGI,RXF 393 renal,> 100 µM
same,TGI,HCT-15 colon,> 100 µM
same,TGI,HS 578T breast,> 100 µM
same,TGI,NCI-H226 lung,> 100 µM
same,TGI,UACC-257 melanoma,> 100 µM
same,TGI,MOLT-4 leukemia,> 100 µM
same,TGI,PC-3 prostate,> 100 µM
same,TGI,OVCAR-4 ovarian,> 100 µM
same,TGI,SNB-19 CNS,> 100 µM
same,TGI,KM12 colon,> 100 µM
same,TGI,EKVX NSCLC,> 100 µM
same,TGI,NCI-H23 lung,> 100 µM
same,TGI,MCF7 breast,> 100 µM
same,TGI,SF-539 CNS,> 100 µM
same,TGI,SW-620 colon,> 100 µM
same,TGI,786-0 renal,> 100 µM
same,TGI,SF-268 CNS,> 100 µM
same,TGI,MDA-MB-231 breast,> 100 µM
same,TGI,OVCAR-8 ovarian,> 100 µM
same,TGI,SK-MEL-2 melanoma,> 100 µM
same,TGI,HL-60(TB) leukemia,> 100 µM
same,TGI,RPMI-8226 leukemia,> 100 µM
same,TGI,ACHN renal,> 100 µM
same,TGI,HOP-92 NSCLC,> 100 µM
same,TGI,T-47D breast,> 100 µM
same,TGI,SR leukemia,> 100 µM
same,TGI,MDA-MB-435,> 100 µM
same,TGI,NCI/ADR-RES ovarian,> 100 µM
same,TGI,U251 CNS,> 100 µM
same,TGI,UACC-62 melanoma,> 100 µM
same,TGI,CAKI-1 renal,> 100 µM
same,TGI,HOP-62 NSCLC,> 100 µM
same,TGI,COLO 205 colon,> 100 µM
same,TGI,K-562 leukemia,> 100 µM
same,TGI,DU-145 prostate,> 100 µM
same,TGI,SK-MEL-28 melanoma,> 100 µM
same,TGI,HT29 colon,> 100 µM
same,TGI,LOX IMVI melanoma,> 100 µM
same,TGI,SK-MEL-5 melanoma,> 100 µM
same,TGI,A498 renal,> 100 µM
CC1(C)CCc2c(ccc(C(=O)/C=C/c3ccc(O)cc3)c2O)O1,TGI,OVCAR-5 ovarian,21.7 µM
same,TGI,NCI-H460 lung,22.2 µM
same,TGI,CCRF-CEM leukemia,13.2 µM
same,TGI,IGROV1 ovarian,19.9 µM
same,TGI,BT-549 breast,22.3 µM
same,TGI,UO-31 renal,25.5 µM
same,TGI,TK-10 renal,20 µM
same,TGI,SN12C renal,20.7 µM
same,TGI,HCT-116 colon,20 µM
same,TGI,RXF 393 renal,20.4 µM
same,TGI,HCT-15 colon,20.5 µM
same,TGI,HS 578T breast,27.2 µM
same,TGI,NCI-H226 lung,22.3 µM
same,TGI,UACC-257 melanoma,23.4 µM
same,TGI,MOLT-4 leukemia,69.1 µM
same,TGI,PC-3 prostate,17.8 µM
same,TGI,OVCAR-4 ovarian,19.6 µM
same,TGI,SNB-19 CNS,25.8 µM
same,TGI,OVCAR-3 ovarian,18.3 µM
same,TGI,SK-OV-3 ovarian,74.6 µM
same,TGI,EKVX NSCLC,10.1 µM
same,TGI,MALME-3M melanoma,16.3 µM
same,TGI,NCI-H23 lung,22.7 µM
same,TGI,MCF7 breast,29.4 µM
same,TGI,SF-539 CNS,22 µM
same,TGI,SW-620 colon,24.4 µM
same,TGI,SF-268 CNS,23.2 µM
same,TGI,MDA-MB-231 breast,18.9 µM
same,TGI,OVCAR-8 ovarian,22 µM
same,TGI,SK-MEL-2 melanoma,23.5 µM
same,TGI,HL-60(TB) leukemia,44.2 µM
same,TGI,RPMI-8226 leukemia,20.8 µM
same,TGI,ACHN renal,20.5 µM
same,TGI,SF-295 CNS,26.1 µM
same,TGI,HOP-92 NSCLC,24.4 µM
same,TGI,T-47D breast,21 µM
same,TGI,SR leukemia,30.5 µM
same,TGI,MDA-MB-435,19.9 µM
same,TGI,NCI/ADR-RES ovarian,21.6 µM
same,TGI,U251 CNS,20.1 µM
same,TGI,UACC-62 melanoma,19.6 µM
same,TGI,CAKI-1 renal,15.8 µM
same,TGI,HOP-62 NSCLC,19.4 µM
same,TGI,COLO 205 colon,20.7 µM
same,TGI,K-562 leukemia,75 µM
same,TGI,DU-145 prostate,18.6 µM
same,TGI,SK-MEL-28 melanoma,17 µM
same,TGI,HT29 colon,23.9 µM
same,TGI,LOX IMVI melanoma,19.8 µM
same,TGI,SK-MEL-5 melanoma,22 µM
same,TGI,M14 melanoma,20.7 µM
same,TGI,A498 renal,29.8 µM
same,TGI,A549 NSCLC,25.8 µM

# — PubChem BioAssay (NCI)
